Assay [1] concerns cancers harboring atypical (non-V600E/K) BRAF mutations. Put plainly: solid tumor Phase 1b trial of BVD-523, tumor response by RECIST v1.1 and duration of treatment. Type of assay: in vivo, human. As to conditions: for duration of treatment: single patient. How it is done:
The waterfall plot depicted in FIG. 2 provides an illustration of human clinical trial patient information showing each individual patient's response to treatment with BVD-523, as measured by % change in tumor burden. Patients generally received 600 mg, twice daily (BID), with some patients receiving a deescalated dose of 300 mg-400 mg BID if side effects were not manageable with other palliative medication. […] The horizontal axis across the plot serves as a baseline measurement for each patient. The vertical axis is a measure of the maximum percentage change from baseline; i.e., percent growth or reduction of tumor burden by radiologic measurement according to RECIST v1.1. Radiologic measurement comprised computed tomography (CT) scan and, rarely, magnetic resonance imaging (MRI). The tumor burden data represented by FIG. 2 is arranged from the worst value (i.e. greatest progression of tumor burden) on the left side of the plot to the best value (i.e., greatest reduction of tumor burden) on the right side of the plot. RECIST v1.1 response criteria for measured target lesions have been described previously. (See Eisenhauer, E. A., et al., New response evaluation criteria in solid tumours: Revised RECIST guideline (version 1.1), European J. of Cancer 45, 228-247 (2009), incorporated by reference herein in its entirety). […] Members of Group 1 are any patients with any BRAF mutation in any tumor type other than colorectal cancer (CRC) and non-small cell lung carcinoma (NSCLC), and that have not been previously treated with a MAPK pathway inhibitor. The members of Group 2 are patients with any BRAF mutation in CRC that have not been previously treated with a MAPK pathway inhibitor. The members of Group 3 are patients having a tumor with a BRAF […] mutation that is refractory to MAPK inhibitor treatment. The members of Group 6 are patients with any BRAF mutation present in NSCLC. […] The duration of treatment for each subject in each group is illustrated from the top (longest treatment duration) to bottom (least treatment duration) of the groups. The horizontal axis represents the duration, in days, that the patient was on the study. […] All 28 patients measured for RECIST v1.1 response criteria are included, plus additional patients not evaluated by RECIST v1.1 (diamond=partial response; circle=stable disease: vertical bar=progressive disease; triangle=not evaluated). The mean duration of BVD-523 treatment before discontinuation for tumors harboring the same BRAF mutation was: […], 73.6 days; […], 208.14 days: […], 50.25 days: […], 73.3 days; […], 63.5 days. For single patient representatives of specific BRAF mutations, the duration of treatment was: […], 304 days: […], 84 days: […], 77 days: BRAF fusion, 65 days: BRAF-AGAP3 rearrangement, 43 days: BRAF exon 15 splice variant, 15 days. By genomic screening of cancer patients for BRAF mutation and treating them prior to full in vitro characterization of those mutations (as a driver mutation), BVD-523 is shown to be useful to interrogate and discover efficacious treatment options for patients carrying mutations in BRAF. The clinical population of patients and the efficacy is not defined primarily by tumor type, but rather mutational status of enzymes such as BRAF, upstream of ERK 1/2 kinase activation.

For assay [2], the system named is ERK1/2. The assay can be described thus: autophosphorylation of ERK (mechanism of action of ERK1/2 inhibitors). Type of assay: biochemical. As to conditions: stated in the description, no test described.
Assay [3] deals with ERK1/2. As to conditions: Morris et al., 2013; cited from earlier work.
[4] abbreviates: 28 evaluable patients, RECIST v1.1, generally 600 mg BID.

Where two headings read alike, the source gives them in different places.

Turning to `CC(C)Nc1cc(-c2c[nH]c(C(=O)N[C@H](CO)c3cccc(Cl)c3)c2)c(Cl)cn1` [BVD-523], the “number of patients with partial response (PR)” value in assay [1] (setting [4]) is given as “Five”. Moreover, in assay [1] (setting [4]), the “number of patients with progressive disease at first evaluation” value was “Three”. The “number of patients with stable disease” value in assay [1] (setting [4]) stood at 19 patients. Further, in assay [1] (patients with atypical (non-V600E/K) BRAF mutations, RECIST v1.1), the “patients with partial response or stable disease” value is given as 24 out of 28. Further, the duration of treatment was determined as 84 days in assay [1] (BRAF F247L); 77 days in assay [1] (BRAF G466V); 304 days in assay [1] (BRAF L485W); 15 days in assay [1] (BRAF exon 15 splice variant); 65 days in assay [1] (BRAF fusion); 43 days in assay [1] (BRAF-AGAP3 rearrangement). Further, the “mean duration of treatment before discontinuation” value in assay [1] (tumors harboring BRAF D594) was determined as 73.6 days; in assay [1] (tumors harboring BRAF G469), 208.14 days; in assay [1] (tumors harboring BRAF K601E) it was 50.25 days; in assay [1] (tumors harboring BRAF L597) it was 73.3 days; in assay [1] (tumors harboring BRAF T599 Dup) it was 63.5 days. Also, the “effect on autophosphorylation of ERK” value in assay [2] is recorded as “allows for the autophosphorylation of ERK while still inhibiting ERK”.

Take `O=C(Nc1ccc2[nH]nc(-c3ccncc3)c2c1)[C@@H]1CCN(CC(=O)N2CCN(c3ccc(-c4ncccn4)cc3)CC2)C1` [SCH772984]: the “effect on autophosphorylation of ERK” value in assay [3] was “inhibit autophosphorylation of ERK”.

Values taken from patent US12582635B2, “Compositions and methods for treating cancer with atypical BRAF mutations” (BIOMED VALLEY DISCOVERIES, INC., priority 2017, dated 2026).
